Assay results published in patent publication US7189724B2, “Quinoxaline derivatives having antiviral activity” (Valeant Research and Development, priority 2003, dated 2007).
Read-outs that look alike come from different tables or passages of the source.

What was measured:
[1] = biological target: T1, HCV NS5B polymerase (Hepatitis C virus genotype 1b, UniProt Q9WMX2); experiment: De novo RNA synthesis activity assay for HCV NS5B polymerase; type: biochemical, HCV-1b CON1 strain
T1 construct: HCV NS5B was derived from a cDNA clone encoding HCV-1b CON1 strain, and was expressed and purified from E. coli; made in house; host or cells: E. coli
T1 sequence (Q9WMX2 2420-3010): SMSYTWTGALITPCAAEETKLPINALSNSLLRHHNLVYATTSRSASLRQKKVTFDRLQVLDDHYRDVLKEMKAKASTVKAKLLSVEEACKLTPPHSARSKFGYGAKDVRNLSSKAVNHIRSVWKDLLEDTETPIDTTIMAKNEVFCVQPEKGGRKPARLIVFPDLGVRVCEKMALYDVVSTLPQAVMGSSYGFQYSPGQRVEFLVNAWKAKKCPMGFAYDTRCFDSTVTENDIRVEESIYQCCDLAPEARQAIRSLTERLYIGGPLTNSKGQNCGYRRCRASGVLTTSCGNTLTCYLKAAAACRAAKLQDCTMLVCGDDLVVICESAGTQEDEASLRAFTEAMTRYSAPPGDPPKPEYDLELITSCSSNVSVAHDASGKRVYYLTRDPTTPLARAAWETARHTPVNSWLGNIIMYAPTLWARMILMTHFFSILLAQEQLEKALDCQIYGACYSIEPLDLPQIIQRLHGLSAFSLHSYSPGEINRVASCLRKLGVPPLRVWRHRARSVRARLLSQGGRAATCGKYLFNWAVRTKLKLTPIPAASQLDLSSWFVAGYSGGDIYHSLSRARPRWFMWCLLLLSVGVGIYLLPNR
From the text: HCV NS5B was derived from a cDNA clone encoding HCV-1b CON1 strain, and was expressed and purified from E. coli. Various [α-^33P]rNTPs (3000 Ci/mmol) were purchased from Perkin Elmer. 3′-Deoxy ribonucleosides, their 5′-triphosphates and dinucleotide primers were from Sigma, TriLink (San Diego, Calif.) or ICN Biochemicals. All other reagents were of the highest grade available from ICN, Sigma, Fisher, or Ambion.
An HCV mini-genome of 2.1-kb contains an entire 5′-UTR (untranslated region), part of NS5B sequence and an entire 3′-UTR was constructed from an internal deletion between two KpnI sites on the HCV replicon plasmid, pFK389/NS3-3′. To generate the in vitro transcribed mini-genome RNA, the plasmid DNA was linearized with AseI and ScaI and transcribed in vitro using a MegaScript kit (Ambion, Austin, Tex.). After phenol-chloroform extraction and isopropanol precipitation, the RNA was resuspended in RNase-free water and stored at −80° C. before use. This HCV strain CON1-based template was used for the standard NS5B-catalyzed RNA synthesis assay.
A standard NS5B activity assay was performed at 23C in a total volume of 25 μl. The reaction buffer contained 50 mM Tris, pH 7.0, 10 mM MgCl2, 50 mM NaCl, 5 mM DTT (add fresh) and 0.05 mg/ml BSA. 0.4 μg of the RNA template was incubated with NS5B enzyme (250 nM) before adding a mixture of radiolabeled nucleotide (0.2 μCi) and cold nucleotide cocktail to initiate a reaction. The assay was incubated for 1 hr and terminated by addition of 75 μl of 5% trichloroacetic acid (TCA) and 0.05% pyrophosphate solution. The quenched solution was incubated at room temperature for 10 min to precipitate out polymeric products and subsequently transferred to a 96-well white GF/B filter microplate (Packard Instrument) using a Packard Filtermate Universal Harvester. The filter plate was washed five times by water and one time by ethanol before vacuum drying. 40 μl of liquid scintillation cocktail (Packard MicroSint™) was added to each well. Radioactivity incorporated into the product was counted in a 96-well format using a Packard TopCount. IC50 values, defined as the inhibitor concentration to suppress 50% of NS5B activity, were determined by varying the compound concentration. The results in Table 1 are data obtained using the HCV NS5B assays described above.

[2] = tested on: HCV replicon RNA in replicon cells (Huh-7); experiment: HCV Replicon Assay (reduction of HCV RNA, QuantiGene); type: cell-based; conditions: Hepatitis C virus; for IC50: read-out: HCV Replicon (IC50); for EC50: first part of Table 1 (scaffold drawing 18)
Method: The anti-HCV activity of the quinoxaline derivatives was tested by replicon and BVDV cell-line based assays. The HCV NS5B polymerase activity was tested as described below, and was further tested for its capability of inhibition of replication of the hepatitis C virus in a cell-line based HCV replicon assay as described in V. Lohmann, F. Komer, J.-O. Koch, U. Herian, L. Theilmann, R. Bartenschlager, “Replication of a Subgenomic Hepatitis C virus RNAs in a Hepatoma Cell Line”, Science, 1999, 285:110.
HCV Replicon Assay. The replicon cells (Huh-7) contain replicating HCV replicon RNA, which was modified in the structural region (replacing the structural region with a neomycin resistance marker). Survival of the replicon cells under G418 selection relies on the replication of HCV RNA and subsequently expression of neomycin phosphoryltransferase. The ability of modified nucleoside libraries and compounds to suppress HCV RNA replication was determined using the QuantiGene™ Assay Kit (Bayer Diagnostics, Tarrytown N.Y.). The assay measures the reduction of HCV RNA molecules in the treated cells. Replicon cells were incubated at 37° C. for 3 days in the presence of nucleoside libraries and compounds before being harvested for detection. The assay protocol was modified based on literature procedure (V. Lohmann, F. Komer, J. O. Koch, U. Herian, L. Theilmann, R. Bartenschlager, Science, 1999, 285, 110–113). The HCV subgenomic replicon cell line was provided by Dr. R. Bartenschlager.

[3] = 72 h, Huh-7 replicon cells, 3 days at 37° C., second part of Table 1 (scaffold drawing 19)
[4] = NS5B 250 nM, 23C, 1 hr, second part of Table 1 (scaffold drawing 19), read-out: HCV NS5B (EC50)
[5] = 72 h, Huh-7 replicon cells, 3 days at 37° C.

Work on `O=C(O)c1ccc2nc(-c3ccccn3)c(-c3ccccn3)nc2c1` yielded an EC50 [1] of over 50 µM and an IC50 [2, 3] of over 50 µM.
With `O=C(N[C@@H](Cc1c[nH]c2ccc(O)cc12)C(=O)O)c1ccc2nc(-c3ccccc3)c(-c3ccccc3)nc2c1` the EC50 [1, 4] was over 50 µM.
Work on `O=C(N[C@@H](Cc1c[nH]c2ccccc12)C(=O)O)c1ccc2nc(-c3ccccc3)c(-c3ccccc3)nc2c1` yielded an EC50 [1] of 10 to 50 µM.
Work on `O=C(N[C@@H](Cc1c[nH]c2ccc(O)cc12)C(=O)O)c1ccc2nc(-c3ccc(F)cc3)c(-c3ccc(F)cc3)nc2c1` [R=OH, X=OH] yielded an IC50 [1] of under 10 µM and an EC50 [2, 5] of 10 to 50 µM.
`Cc1ccc(-c2nc3cc(C(=O)N[C@@H](Cc4c[nH]c5ccc(O)cc45)C(=O)O)ccc3nc2-c2ccc(Cl)cc2)cc1` gave an EC50 [1, 4] of under 10 µM.
`O=C(O)c1ccc2nc(-c3ccccc3)c(-c3ccccc3)nc2c1` gave an EC50 [1] of under 10 µM and an IC50 [2, 3] of over 50 µM.
`NC(=O)[C@H](Cc1c[nH]c2ccc(O)cc12)NC(=O)c1ccc2nc(-c3ccc(F)cc3)c(-c3ccc(F)cc3)nc2c1` [R=NH2, X=OH] gave an IC50 [1] of under 10 µM and an EC50 [2, 5] of 10 to 50 µM.
Compound `COC(=O)[C@H](Cc1c[nH]c2ccccc12)NC(=O)c1ccc2nc(-c3ccccc3)c(-c3ccccc3)nc2c1` has an EC50 [1, 4] of over 50 µM.
With `COC(=O)[C@H](Cc1c[nH]c2ccc(O)cc12)NC(=O)c1ccc2nc(-c3ccc(F)cc3)c(-c3ccc(F)cc3)nc2c1` [R=OCH3, X=OH] the IC50 [1] was under 10 µM and the EC50 [2, 5] was 10 to 50 µM.
`COC(=O)[C@H](Cc1c[nH]c2ccccc12)NC(=O)c1ccc2nc(-c3ccccn3)c(-c3ccccn3)nc2c1` showed an EC50 [1] of over 50 µM and an IC50 [2, 3] of over 50 µM.
`O=C(N[C@@H](Cc1c[nH]c2ccccc12)C(=O)O)c1ccc2nc(-c3ccccn3)c(-c3ccccn3)nc2c1` showed an EC50 [1] of over 50 µM and an IC50 ([2]; Huh-7, 72 h) of over 50 µM.
`COC(=O)c1ccc2nc(-c3ccc(F)cc3)c(-c3ccc(F)cc3)nc2c1` showed an EC50 [1] of over 50 µM and an IC50 [2, 3] of over 50 µM.
In the case of `Cc1ccc(-c2nc3cc(C(=O)O)ccc3nc2-c2ccc(Cl)cc2)cc1`, the EC50 [1, 4] is reported as under 10 µM and the IC50 ([2]; Huh-7, 72 h) is reported as 10 to 50 µM.
